In patent US20060263802A1 (priority 2003, published 2006):

What was measured:
Assay type in all cases: binding
[1] = system: human monoclonal antibody CRJA
[2] = system: human monoclonal antibody CR57
[3] = system: human monoclonal antibody CR57; remark: listed apart in the source
[4] = system: human monoclonal antibody CRJB
[5] = system: human monoclonal antibody CRJA; remark: listed apart in the source
[6] = system: human monoclonal antibody CRJB; remark: listed apart in the source

Row | Sequence | Binding of CRJA (10 μg/ml) to looped/cyclic peptide (PEPSCAN-ELISA) [1] | Binding of CR57 to linear peptide (PEPSCAN-ELISA signal) [2] | Binding of CR57 (10 μg/ml) to looped/cyclic peptide (PEPSCAN-ELISA) [3] | Binding of CRJB (10 μg/ml) to looped/cyclic peptide (PEPSCAN-ELISA) [4] | Binding of CRJA to linear peptide (PEPSCAN-ELISA signal) [5] | Binding of CRJB to linear peptide (PEPSCAN-ELISA signal) [6] | Binding of CRJA (10 μg/ml) to looped/cyclic peptide (PEPSCAN-ELISA signal) [1] | Binding of CR57 (10 μg/ml) to looped/cyclic peptide (PEPSCAN-ELISA signal) [3] | Binding of CRJB (10 μg/ml) to looped/cyclic peptide (PEPSCAN-ELISA signal) [4] | Binding of CRJA to looped/cyclic peptide (PEPSCAN-ELISA signal) [1] | Binding of human monoclonal antibody CR57 to linear peptide (PEPSCAN-ELISA signal) [2] | Binding of CR57 to looped/cyclic peptide (PEPSCAN-ELISA signal) [3] | Binding of CRJB to looped/cyclic peptide (PEPSCAN-ELISA signal) [4] | Binding of human monoclonal antibody CRJA to linear peptide (PEPSCAN-ELISA signal) [5] | Binding of human monoclonal antibody CRJB to linear peptide (PEPSCAN-ELISA signal) [6] | binding of antibody CR57 to linear peptide (PEPSCAN OD) [2]
1 | ADAHYKSVRTWNEIL | 90 | 56 | 69 | 82 | 93 | 100 |  |  |  |  |  |  |  |  |  | 
2 | DKLGPWSPIDIHHLS |  | 62 |  |  | 78 | 103 | 89 | 104 | 70 |  |  |  |  |  |  | 
3 | TVFKDGDEAEDFVEV |  |  |  |  |  |  |  |  |  | 110 | 107 | 111 | 90 | 92 | 124 | 
4 | IPLVHPLADPSTVFK | 106 | 96 | 99 | 107 | 130 | 156 |  |  |  |  |  |  |  |  |  | 
5 | LVVEELVRKREECLD | 50 | 64 | 68 | 76 | 65 | 100 |  |  |  |  |  |  |  |  |  | 
6 | CTGVVTEAENYTNFV |  | 76 |  |  | 89 | 123 | 101 | 92 | 85 |  |  |  |  |  |  | 
7 | LGPWSPIDIHHLSCP |  | 69 |  |  | 84 | 112 | 72 | 88 | 83 |  |  |  |  |  |  | 
8 | EILPSKGCLRVGGRC | 111 | 104 | 132 | 97 | 106 | 112 |  |  |  |  |  |  |  |  |  | 
9 | DACRAAYNWKMAGDP |  | 84 |  |  | 83 | 113 | 110 | 133 | 77 |  |  |  |  |  |  | 
10 | GNVLIPEMQSSLLQQ | 78 | 96 | 99 | 103 | 85 | 120 |  |  |  |  |  |  |  |  |  | 
11 | NGVFFNGIILGPDGN | 46 | 66 | 58 | 85 | 62 | 117 |  |  |  |  |  |  |  |  |  | 
12 | SCDIFTNSRGKRASK |  | 44 |  |  | 89 | 111 | 57 | 1 | 79 |  |  |  |  |  |  | 
13 | LVHPLADPSTVFKDG | 108 | 164 | 133 | 116 | 106 | 174 |  |  |  |  |  |  |  |  |  | 
14 | PLVHPLADPSTVFKD | 104 | 93 | 101 | 90 | 90 | 112 |  |  |  |  |  |  |  |  |  | 
15 | RYEESLHNPYPDYRW |  | 69 |  |  | 96 | 112 | 91 | 98 | 71 |  |  |  |  |  |  | 
16 | KMAGDPRYEESLHNP |  | 62 |  |  | 48 | 102 | 38 | 49 | 45 |  |  |  |  |  |  | 
17 | VGGRCHPHVNGVFFN | 106 | 120 | 143 | 64 | 92 | 136 |  |  |  |  |  |  |  |  |  | 
18 | LHDFRSDEIEHLVVE | 90 | 93 | 40 | 65 | 110 | 115 |  |  |  |  |  |  |  |  |  | 
19 | CLRVGGRCHPHVNGV | 111 | 102 | 101 | 104 | 103 | 132 |  |  |  |  |  |  |  |  |  | 
20 | KGACKLKLCGVLGLR | 50 | 181 | 78 | 60 | 50 | 111 |  |  |  |  |  |  |  |  |  | bound
21 | SGKCSGVAVSSTYCS |  | 64 |  |  | 65 | 121 | 85 | 77 | 57 |  |  |  |  |  |  | 
22 | TCTGVVTEAENYTNF |  | 92 |  |  | 96 | 112 | 112 | 107 | 93 |  |  |  |  |  |  | 
23 | SVRTWNEILPSKGCL | 165 | 106 | 151 | 147 | 123 | 138 |  |  |  |  |  |  |  |  |  | 
24 | NNLVVEDEGCTNLSG |  | 72 |  |  | 93 | 99 | 88 | 86 | 75 |  |  |  |  |  |  | 
25 | CKLKLCGVLGLRLMD | 91 | 410 | 64 | 74 | 88 | 111 |  |  |  |  |  |  |  |  |  | bound
26 | IFNKTLMEADAHYKS | 98 | 100 | 107 | 86 | 87 | 118 |  |  |  |  |  |  |  |  |  | 
27 | CPNNLVVEDEGCTNL |  | 77 |  |  | 75 | 97 | 84 | 79 | 54 |  |  |  |  |  |  | 
28 | DQLVNLHDFRSDEIE | 63 | 54 | 46 | 27 | 88 | 117 |  |  |  |  |  |  |  |  |  | 
29 | FNKTLMEADAHYKSV | 101 | 111 | 124 | 129 | 86 | 141 |  |  |  |  |  |  |  |  |  | 
